A short description of data set [1]: Caco-2 permeability assay (CacoReady kit). The data set is classed as in vitro ADME. The following applies: human, Caco-2, Caco-2 barrier, CacoReady kit; above 1×10^−6 cm/s classified as permeable. Summed up:
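Compounds are tested on pre-formed Caco-2 barriers supplied as a ready-to-use kit, following the kit protocol, and the Papp value is derived to estimate intestinal absorption.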
In general terms: Caco-2 monolayers are a common model of the intestinal barrier.

A short description of data set [2]: logD by shake flask method (octanol / PBS pH 7.4, HPLC). The data set is classed as physicochemical. The following applies: octanol / PBS pH 7.4, shake flask. Summed up: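 LogD obtained by HPLC measurement of how the compound distributes between PBS (pH 7.4) and octanol in a shake-flask experiment.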
Data set [3] deals with T1, recombinant human transglutaminase 2 (Homo sapiens, UniProt P21980).
T1 construct: purchased Zedira T022
T1 sequence (P21980 1-687): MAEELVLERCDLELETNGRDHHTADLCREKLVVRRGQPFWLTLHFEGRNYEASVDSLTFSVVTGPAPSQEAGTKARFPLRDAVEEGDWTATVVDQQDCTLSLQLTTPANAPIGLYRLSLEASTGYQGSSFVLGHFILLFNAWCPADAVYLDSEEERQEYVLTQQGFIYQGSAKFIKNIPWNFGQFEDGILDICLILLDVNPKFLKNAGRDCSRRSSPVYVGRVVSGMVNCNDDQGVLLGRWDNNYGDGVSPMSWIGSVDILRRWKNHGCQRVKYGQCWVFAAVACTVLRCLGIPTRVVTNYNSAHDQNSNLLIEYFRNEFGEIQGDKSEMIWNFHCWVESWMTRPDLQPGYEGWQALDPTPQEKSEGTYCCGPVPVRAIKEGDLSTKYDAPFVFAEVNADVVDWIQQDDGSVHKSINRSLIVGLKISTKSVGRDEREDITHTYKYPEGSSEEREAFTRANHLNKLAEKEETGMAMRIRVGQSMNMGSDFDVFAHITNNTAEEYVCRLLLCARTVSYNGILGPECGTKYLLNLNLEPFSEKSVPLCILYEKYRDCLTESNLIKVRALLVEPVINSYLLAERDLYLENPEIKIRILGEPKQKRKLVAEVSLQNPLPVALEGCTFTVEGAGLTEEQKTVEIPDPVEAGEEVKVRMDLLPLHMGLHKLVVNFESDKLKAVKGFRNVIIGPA
Briefly: Transglutaminase assay (DCC-assay): incorporation of dansylcadaverine into dimethylcasein. It is filed as biochemical. The following applies: recombinant human TG2 10 nM; dansylcadaverine incorporation into dimethylcasein; read-out: IC50 TG2. Put shortly:
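IC50 is the inhibitor level that blocks 50% of initial activity. Activity is the fluorescence slope (λex 330, λem 500 nm) between 20 and 30 min of a 37 °C run, relative to a 2% DMSO control. The enzyme is recombinant human tissue transglutaminase, 10 nM final, tested against a 1:2 inhibitor dilution series in a pH 8.0 mix with 10 mM CaCl2, 10 mM glutathione, 16.7 µM dansylcadaverine and 4 µM N,N-dimethylcasein.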

Some results are limits rather than exact numbers.

For `CNC(=O)C(=O)CC[C@H](NC(=O)c1nncs1)C(=O)Nc1cccn(CC(=O)NC23CC(C2)C3)c1=O` [II-200, (S)-N1-(1-(2-(bicyclo[1.1.1]pentan-1-ylamino)-2-oxoethyl)-2-oxo-1,2-dihydropyridin-3-yl)-N6-methyl-5-oxo-2-(1,3,4-thiadiazole-2-carboxamido)hexanediamide], the Papp in data set [1] is below 1 ×10⁻⁶ cm/s. For the same compound, in data set [2], the logD was below 1. Also, in data set [3], the IC50 was in the range of 40 to 400 nM.

As for `CNC(=O)C(=O)CC[C@H](NC(=O)c1snnc1C1CC1)C(=O)Nc1cccn(CC(=O)NC23CC(C2)C3)c1=O` [II-201, (S)-N1-(1-(2-(bicyclo[1.1.1]pentan-1-ylamino)-2-oxoethyl)-2-oxo-1,2-dihydropyridin-3-yl)-2-(4-cyclopropyl-1,2,3-thiadiazole-5-carboxamido)-N6-methyl-5-oxohexanediamide], the Papp in data set [1] was below 1 ×10⁻⁶ cm/s. The compound further displayed a logD in data set [2] below 1. The IC50 in data set [3] is 40 to 400 nM.

`CNC(=O)C(=O)CC[C@H](NC(=O)c1snnc1C1CC1)C(=O)Nc1cccn(CC(=O)NC2C3CC4CC(C3)CC2C4)c1=O` (stereo partly drawn) [II-202, (S)-2-(4-cyclopropyl-1,2,3-thiadiazole-5-carboxamido)-N1-(1-(2-(2-adamantylamino)-2-oxoethyl)-2-oxo-1,2-dihydropyridin-3-yl)-N6-methyl-5-oxohexanediamide] had a Papp in data set [1] below 1 ×10⁻⁶ cm/s. For the same compound, the logD in data set [2] is below 1. Besides, the IC50 in data set [3] was 40 to 400 nM.

Compound `CNC(=O)C(=O)CC[C@H](NC(=O)c1snnc1C(C)C)C(=O)Nc1cccn(CC(=O)NC2C3CC4CC(C3)CC2C4)c1=O` (stereo partly drawn) [II-203, (S)-2-(4-isopropyl-1,2,3-thiadiazole-5-carboxamido)-N1-(1-(2-(2-adamantylamino)-2-oxoethyl)-2-oxo-1,2-dihydropyridin-3-yl)-N6-methyl-5-oxohexanediamide] registered a Papp in data set [1] below 1 ×10⁻⁶ cm/s. This compound also gave a logD in data set [2] of 1 to 3. In data set [3], the IC50 is 40 to 400 nM.

With `CCc1nnsc1C(=O)N[C@@H](CCC(=O)C(=O)NC)C(=O)Nc1cccn(CC(=O)NC2C3CC4CC(C3)CC2C4)c1=O` (stereo partly drawn) [II-204, (S)-2-(4-ethyl-1,2,3-thiadiazole-5-carboxamido)-N1-(1-(2-(2-adamantylamino)-2-oxoethyl)-2-oxo-1,2-dihydropyridin-3-yl)-N6-methyl-5-oxohexanediamide], in data set [1], the Papp was below 1 ×10⁻⁶ cm/s. In addition, the logD in data set [2] is 1 to 3. For the same compound, the IC50 in data set [3] lay within 40 to 400 nM.

In data set [1], `CNC(=O)C(=O)CC[C@H](NC(=O)c1snnc1C=O)C(=O)Nc1cccn(CC(=O)NC2C3CC4CC(C3)CC2C4)c1=O` (stereo partly drawn) [II-205, (S)-2-(4-formyl-1,2,3-thiadiazole-5-carboxamido)-N1-(1-(2-(2-adamantylamino)-2-oxoethyl)-2-oxo-1,2-dihydropyridin-3-yl)-N6-methyl-5-oxohexanediamide] came in with a Papp below 1 ×10⁻⁶ cm/s. This compound gave a logD in data set [2] below 1. The IC50 in data set [3] is 40 to 400 nM.

Consider `CNC(=O)C(=O)CC[C@H](NC(=O)c1snnc1CO)C(=O)Nc1cccn(CC(=O)NC2C3CC4CC(C3)CC2C4)c1=O` (stereo partly drawn) [II-206, (S)-2-(4-(hydroxymethyl)-1,2,3-thiadiazole-5-carboxamido)-N1-(1-(2-(2-adamantylamino)-2-oxoethyl)-2-oxo-1,2-dihydropyridin-3-yl)-N6-methyl-5-oxohexanediamide], for which the Papp in data set [1] was below 1 ×10⁻⁶ cm/s. Further, the logD in data set [2] was below 1. Also, the IC50 in data set [3] fell in the range of 40 to 400 nM.

With `CNC(=O)C(=O)CC[C@H](NC(=O)c1cncn1C)C(=O)Nc1cccn(CC(=O)NC23CC4CC(CC(C4)C2)C3)c1=O` [II-207, (S)-N1-(1-(2-(1-adamantylamino)-2-oxoethyl)-2-oxo-1,2-dihydropyridin-3-yl)-N6-methyl-2-(1-methyl-1H-imidazole-5-carboxamido)-5-oxohexanediamide], the Papp in data set [1] was below 1 ×10⁻⁶ cm/s. The logD in data set [2] is below 1. Also, in data set [3], the IC50 is 40 to 400 nM.

Broadly, the Papp is a coefficient for how fast a substance crosses the barrier. By logD is commonly meant the decadic logarithm of the distribution of all forms, ionised or not, between an organic phase and buffer at a given pH. Low values mean a more hydrophilic compound, high ones a more lipophilic compound. The IC50 is the concentration that gives 50% inhibition.
